Data taken from PMC3761409 (Journal of molecular recognition : JMR, 2013).
No end group written: not given here.

How the values were obtained:
[1] = target: T1, Human Bcl2 (residues 1-205) (Homo sapiens, UniProt P10415); assay: Isothermal titration calorimetry; assay type: binding; conditions: for Kd: SD
[2] = target: T1, Human Bcl2 (residues 1-205); assay: ITC: effect of NaCl concentration on binding; conditions: Sodium phosphate buffer, NaCl 0-500mM, 25°C, pH 7
Bcl2 = Bcl2 (Homo sapiens, UniProt P10415); assay: In vitro binding of full-length Bad to Bcl2; conditions: unpublished observations
Bcl2, sequence (P10415 whole entry): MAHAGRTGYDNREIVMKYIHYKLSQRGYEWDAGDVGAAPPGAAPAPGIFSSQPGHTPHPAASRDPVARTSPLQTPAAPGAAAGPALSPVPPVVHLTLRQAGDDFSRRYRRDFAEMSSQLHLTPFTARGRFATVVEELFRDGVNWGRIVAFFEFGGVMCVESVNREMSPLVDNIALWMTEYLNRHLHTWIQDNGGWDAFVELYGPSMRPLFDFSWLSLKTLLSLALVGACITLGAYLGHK

BclXL = BclXL (Homo sapiens, UniProt Q07817); assay: In vitro binding of full-length Bad to BclXL; conditions: unpublished observations
BclXL, sequence (Q07817 whole entry, species assumed): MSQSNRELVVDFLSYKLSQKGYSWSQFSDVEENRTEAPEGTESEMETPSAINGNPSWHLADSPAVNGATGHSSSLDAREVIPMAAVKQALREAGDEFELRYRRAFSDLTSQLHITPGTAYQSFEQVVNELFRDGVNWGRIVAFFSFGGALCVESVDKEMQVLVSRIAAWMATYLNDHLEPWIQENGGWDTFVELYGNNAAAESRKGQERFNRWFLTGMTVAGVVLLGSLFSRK

T1 sequence (P10415 1-205): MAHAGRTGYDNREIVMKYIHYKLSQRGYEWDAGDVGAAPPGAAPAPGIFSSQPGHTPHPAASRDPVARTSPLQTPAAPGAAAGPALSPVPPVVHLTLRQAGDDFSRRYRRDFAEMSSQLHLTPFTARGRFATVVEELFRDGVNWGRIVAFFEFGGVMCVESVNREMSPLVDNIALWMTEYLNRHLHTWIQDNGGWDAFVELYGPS

Row | Molecule | binding to Bcl2 under varied conditions ([1]; ITC, temperature, buffer or solution pH varied) | Kd [1] [nM] | effect of increasing NaCl concentration on the binding (Kd) to Bcl2 [2] | affinity of the full-length protein toward Bcl2 (Bcl2) | affinity of the full-length protein toward BclXL (BclXL)
1 | ELEVECATQLRRFGDKLNFR [Noxa] | did not observe the binding |  |  |  | 
2 | ASTKKLSESLKRIGDELDSN [Bax] |  | 3100 ± 660 | enhancement of between two-to-five folds |  | 
3 | CC[C@H](C)[C@H](NC(=O)[C@H](C)NC(=O)[C@H](CC(C)C)NC(=O)[C@H](CCC(N)=O)NC(=O)[C@H](CCCNC(=N)N)NC(=O)CNC(=O)[C@@H](NC(=O)[C@H](CCC(N)=O)NC(=O)CNC(=O)[C@H](CCSC)NC(=O)[C@@H](NC(=O)[C@@H](N)CO)[C@@H](C)O)C(C)C)C(=O)N[C@H](C(=O)NCC(=O)N[C@@H](CC(=O)O)C(=O)N[C@@H](CC(=O)O)C(=O)N[C@H](C(=O)N[C@@H](CC(N)=O)C(=O)N[C@@H](CCCNC(=N)N)C(=O)N[C@@H](CCCNC(=N)N)C(=O)O)[C@@H](C)CC)[C@@H](C)CC [Bak] |  | 1300 ± 250 | largely independent of salt concentration |  | 
4 | QWAREIGAQLRRMGDDLNAQ [Puma_A+4G] |  | 2120 ± 420 |  |  | 
5 | QWAREIGAQLRRMADDLNAQ [Puma] |  | 370 ± 70 | little or negligible effect |  | 
6 | EGSDALALRLACIGDEMDVS [Bik] |  | 3780 ± 790 | enhancement of between two-to-five folds |  | 
7 | QAEVQIARKLQCIADQFHRL [Bmf] |  | 300 ± 70 | little or negligible effect |  | 
8 | WAAQRYGRELRRMSDEFVDS [Bad] |  | 4140 ± 800 | enhancement of between two-to-five folds |  | 
9 | CC(C)C[C@H](NC(=O)[C@H](C)NC(=O)[C@H](CCCCN)NC(=O)[C@H](CC(C)C)NC(=O)[C@H](CCCNC(=N)N)NC(=O)[C@H](C)NC(=O)[C@H](C)NC(=O)[C@@H](NC(=O)[C@H](CC(C)C)NC(=O)[C@H](CCC(N)=O)NC(=O)[C@H](C)NC(=O)[C@H](C)NC(=O)[C@@H](N)CO)[C@@H](C)O)C(=O)NCC(=O)N[C@@H](CC(=O)O)C(=O)N[C@@H](CCC(=O)O)C(=O)N[C@@H](CC(C)C)C(=O)N[C@@H](Cc1c[nH]cn1)C(=O)N[C@@H](CCC(N)=O)C(=O)N[C@@H](CCCNC(=N)N)C(=O)O [Hrk] |  | 25000 ± 8800 | enhancement of between two-to-five folds |  | 
10 | DIIRNIARHLAQVGDSMDRS [Bid] |  | 2100 ± 410 | largely independent of salt concentration |  | 
11 | SAAQLTAARLKALADELHQR [Hrk_G+4A] |  | 3840 ± 710 |  |  | 
12 | full-length Bad: full-length Bad protein (Bcl2-associated death promoter) (protein, UniProt Q92934 1-168, looked up, full-length) MFQIPEFEPSEQEDSSSAERGLGPSPAGDGPSGSGKHHRQAPGLLWDASHQQEQPTSSSHHGGAGAVEIRSRHSSYPAGTEDDEGMGEEPSPFRGRSRSAPPNLWAAQRYGRELRRMSDEFVDSFKKGLPRPKSAGTATQMRQSSSWTRVFQSWWDRNLGRGSSAPSQ |  |  |  | poor affinity | poor affinity
